The values below come from a melting point compilation (Tetko et al.; mined from patent text by program, amines drawn as free bases though some values may be those of a salt).

A value given as a limit tells only on which side of the number the result lay.

As to `COc1cc2ncnc(N3CCC(CCNS(C)(=O)=O)CC3)c2cc1OC`, the melting point lay in the range of 162 to 164 °C.
To `CC(=O)NC[C@H]1CN(c2ccc(-c3nc(Cn4ccnc4)co3)c(F)c2)C(=O)O1` belongs 198 to 200 °C; to `COc1ccc(-n2cccc2)c(N)c1`, 42 to 43 °C; to `Cc1nc(C)c(C(=O)c2ccoc2)o1`, 73.5 to 74.5 °C.
Take `Cn1nc(-c2ncc(Cl)cc2F)c(N)c1OC(F)F`: the melting point lay within 92 to 94 °C.
To `O=C(NC(=O)c1c(O)cccc1F)Nc1ccc(Cl)cc1` belongs 215 °C; to `CCCCCCCCCCc1csc2c1sc1c3scc(CCCCCCCCCC)c3sc21`, 111 to 113 °C.
To `Cc1ccc(Oc2ccc(C(F)(F)F)cc2Cl)cc1C(=O)O` belongs 113 °C; to `Cn1cc(Br)cc([N+](=O)[O-])c1=O`, 122 to 123 °C; to `O=C1C/C(=C\c2ccccc2[N+](=O)[O-])C(=O)N1`, 148 °C.
To `CCOc1nn(Cc2ccccc2OCc2nc(-c3ccccc3)oc2C)cc1CCC(=O)O` belongs 127 to 128 °C.
The compound `CC(C)(C)[NH+]([O-])C(=O)Nc1ccnc(-c2ccncc2)n1` (centres undefined) showed a melting point of 125 to 150 °C.
Take `CC(C)(C)OC(=O)c1cc2ccccc2[nH]1`: the melting point fell in the range of 104 to 105 °C.
To `COc1ccc(NN=C(Sc2ccc(C(C)(C)C)cc2)C(C)=O)cc1` belongs 111 to 113 °C; to `Cc1ccc(S(=O)(=O)N(CCO)CCN(CCN(CCO)S(=O)(=O)c2ccc(C)cc2)S(=O)(=O)c2ccc(C)cc2)cc1`, 110 to 112 °C; to `C#CC[C@H](c1nc2cc(Cl)ccc2c(=O)n1Nc1ccccc1)N(CCCN)C(=O)c1ccc(C)cc1`, 130 to 133 °C.
To `Cc1nc(C)c(Cl)c(CNCc2ccc(O)cn2)n1` belongs 137 to 138 °C.
With `CCOC(=O)c1cnc(Nc2ccccc2OC(C)C)[nH]c1=O`, the melting point is 205 to 207 °C.
On to `CCC1=NC(NC(=O)Nc2cccc(C)c2)C(=O)N(CC(=O)N2CCCCCCC2)c2c(C)cccc21` (centres undefined), for which the melting point was in the range of 189 to 190 °C.
To `O=C(O)CCCCOc1ccccc1C1(c2ccccc2)NC(=O)NC1=O` (centres undefined) belongs 231 to 232 °C; to `Cc1ccc(Oc2ccc(C3NC(C(=O)O)CS3)cc2C#N)c(O)c1` (centres undefined), 150 to 152 °C.
To `OCCCc1ccc(SCc2coc(/C=C/c3ccccc3)n2)cc1` belongs 91 to 92 °C.
To `CN1CCC2(OCCO2)C2(CCCC2)C1=O` belongs 84 to 85 °C; to `CC(C)(C)c1cc(CCC(=O)Oc2ccccc2)ccc1O`, 106 to 109 °C.
For `CCCCOc1ccc2nc(C(=O)O)c(OCc3ccccc3)cc2c1`, the melting point was 108 to 110 °C.
To `O=C(NCCO)c1cccc(-c2cccc3cc(Cc4ccc(=O)[nH]c4)sc23)c1` belongs 134 to 137 °C; to `O=C(O)COc1c(Cl)cc(Cl)cc1Cl`, 180 to 183 °C.
To `CS(=O)(=O)c1ccc(-c2cc(CO[N+](=O)[O-])nn2C2CCCCCCC2)cc1` belongs 110 to 111 °C.
To `COc1ccccc1C1CC=NN1C(=O)c1cccnc1` (centres undefined) belongs 93 to 95 °C; to `COC(=O)N(C)c1cn2cc(Sc3ccccc3)ccc2n1`, 147 to 149 °C; to `CCOC(=O)c1cn(-c2cc(NC(=O)OC(C)(C)C)c(F)cc2F)c2c(C)c(F)c(F)c(C)c2c1=O`, 141 to 142 °C.
`CCOC(=O)COc1ccc2c(C)c(CCN(CC)CC)c(=O)oc2c1Cl`: the melting point lay within 147 to 148 °C.
To `O=C1CC(=Cc2c[nH]c3ccccc23)C(=O)N1Cc1cc(C(F)(F)F)cc(C(F)(F)F)c1` belongs 68 to 69 °C.
To `Cc1cc(OCc2ccc(-c3ccccc3-c3nnn(C(c4ccccc4)(c4ccccc4)c4ccccc4)n3)cc2)c(CO)c(C)n1` belongs 68 to 70 °C; to `Cc1ccc(S(=O)(=O)n2c(C3(O)C=CC(=O)c4ccccc43)cc3ccccc32)cc1` (centres undefined), 110 to 112 °C.
To `N#Cc1ccc(-c2ccc(-c3ccc(C#N)cc3)cc2)cc1` belongs 299 to 300 °C; to `OC1Cc2cc(I)ccc2Sc2ccccc21` (centres undefined), 131 to 133 °C; to `COc1cc2c(Nc3ccc4cn[nH]c4c3)c(C#N)cnc2cc1OCCN1CCOCC1`, 133 to 135 °C.
The compound `C[C@@H]1Cc2ccsc2[C@H](C)N1CCNC(=O)c1c(F)c(F)c(F)c(F)c1F` (relative stereo) gave a melting point of 116 to 119 °C.
For the compound `COC(=O)C1=C(C)NC(C)=C(C(=O)OCCN2CCC(c3ccccc3)CC2)C1c1cccc([N+](=O)[O-])c1` (centres undefined), the melting point was in the range of 159 to 160 °C.
To `CCC(C)(C)NC(=S)Nc1cc(Br)cc(Br)c1` belongs 147 to 149 °C; to `CCOC(=O)c1cc2c3n(ccc-2n1)CC(CCl)=N3`, 270 to 272 °C; to `OC(c1ccc2noc(-c3cccc(Cl)c3)c2c1)c1nc(-c2ccccc2)cs1` (centres undefined), 136 °C.
To `CCP(=O)(CC)Cc1ccccc1O` belongs 127 °C.
To `O=C(NC1CCc2n[nH]cc2C1)[C@@H]1CCCN1C(=O)[C@@H](CC1CCCCC1)NS(=O)(=O)Cc1ccccc1` (some centres undefined) belongs 106 to 109 °C.
`O=C(NCc1ccn(C2=CC3=C(CC2)CCc2[nH]c(=O)c(=O)[nH]c23)c1)Nc1ccccc1` yielded a melting point of over 240 °C.
Regarding `CC(C)=CCN1CCc2c(sc(N)c2C(=O)c2ccccc2)C1`, the melting point was in the range of 76 to 78 °C.
Consider `N#Cc1nn(-c2c(Cl)cc(C(F)(F)F)cc2Cl)c(N)c1-c1ccc(C(F)(F)F)o1`, for which the melting point fell in the range of 148 to 151 °C.
To `O=C(Nc1ccc(OC(F)(F)F)cc1)NC1CCNCC1` belongs 169 to 173 °C; to `COc1cccc(CNc2ncnc3c2sc2nc(N(C)C)c4c(c23)CC(C)(C)CC4)c1OC`, 91.9 to 93 °C; to `Cc1ccc(C(=O)c2c(Cl)cccc2Cl)cc1`, 109 to 112 °C.
To `CCCCCCCCCCOC(=O)Oc1ccc(-c2ccc(C#N)cc2)cc1` belongs 59.3 to 60 °C; to `CNCCCCN1CC[C@H](NC(=O)c2cc(Cl)c(N)cc2OC)[C@H](OC)C1` (relative stereo), 129 °C.
To `NC(=O)c1ccc(F)c2c1CC(N(CCCc1c[nH]c3ccc(Cl)cc13)C1CCC1)CO2` (centres undefined) belongs 152 to 160 °C; to `CN1CCN(c2ccc(/C=C/c3ccccc3F)cc2)CC1`, 142 to 144 °C; to `COCCNC(=O)Cc1c(-c2ccc(C)cc2)nc2[nH]c3ccccc3n12`, 189 to 190 °C.
`CONC(=O)[C@@H](Cc1ccccc1)NC(=O)OC` yielded a melting point of 154 to 155 °C.
Take `Cc1c(C)c2c(c(C)c1O)CCC(C)(CC(=O)O)O2` (centres undefined): the melting point lay within 168 to 171 °C.
To `Nc1cnc(-c2ccc(Br)cc2)c(Cl)n1` belongs 254 to 256 °C; to `O=C1Nc2ccc(O)cc2Sc2ccccc21`, 265 to 267 °C.
To `CON=C(Cl)c1ccccc1S(=O)(=O)NC(=O)Nc1nc(C)nc(OC)n1` belongs 182 to 184 °C; to `COC(=O)c1cscc1NC(=O)NCCCCBr`, 85 to 86 °C; to `CCCCCC(NC(C)C)=C1C(=O)ON=C1C`, 99 to 101 °C.
To `CCS(=O)(=O)N[C@H](C(=O)NCc1ccc(O)c(OC)c1)C(C)C` belongs 49 to 50 °C.
Regarding `COc1cc2c(cc1O)C1Cc3c(Cl)cc(OC)c(OCC(=O)O)c3CN1CC2` (centres undefined), the melting point lay in the range of 172 to 174 °C.
To `CC(C)[C@H](NC(=O)CCC(=O)Nc1ccccc1)C(N)=O` belongs 218 to 220 °C; to `COc1ccc(C2=NN(CC(=O)c3ccc(Cl)cc3)C(=O)[C@H]3CCCC[C@@H]23)cc1OC` (relative stereo), 142 to 144 °C.
To `Cc1cc(C)c(CC(=O)O)c(C#N)c1` belongs 155 to 157 °C; to `CCOC(CBr)(OCC)C(=O)CBr`, 40 to 41.5 °C.
For the compound `COc1cc2oc(=O)c(CCN3CCC(c4ccccc4)CC3)c(C)c2c(OC)c1OC`, the melting point fell in the range of 117 to 118 °C.
To `Cc1ccc(C(=O)c2cnn3c(-c4cccc(N(C)C(=O)C5CC5)c4)ccnc23)cc1` belongs 189 to 190 °C; to `O=c1c(CO)c(-c2ccc(O)cc2)oc2ccccc12`, 234 to 235 °C.
Compound `CN(C)CC(=O)N1c2ccccc2NC(=O)c2cncnc21` registered a melting point of 208 to 210 °C.
To `CCCCOC(=O)COc1ccc(C(=O)Nc2cc(C)ccc2Sc2ccccc2-c2nnn[nH]2)cc1` belongs 146 to 148 °C; to `COC(=O)NC(C)c1cccc(-c2ccc(OC)cc2)c1` (centres undefined), 117 to 119 °C; to `COc1cccc(NC(=O)NCC(=O)N(CC(=O)N2CCCC(C)(C)C2)c2ccccc2)c1`, 200 °C.
With `CC(=O)Oc1ccccc1-c1[nH]c2ccc(Cl)cc2c1-c1ccc(S(C)(=O)=O)cc1`, the melting point was in the range of 238 to 240 °C.
To `CC(=O)N[C@H]1CC[C@H](c2ccc([N+](=O)[O-])cc2)CC1` belongs 221 to 224 °C; to `CN(C)C(=O)Nc1ccc(-c2c[nH]c(=O)cn2)cc1`, 256 to 260 °C.
To `COCN1C(C)=C(C(=O)O)C(c2cccc(Cl)c2Cl)C(C(=O)O)=C1C` belongs 155 to 156 °C.
To `CCCCN1Nn2c(c3ncnc-3c3cccnc32)N1CC(C)C` belongs 182 to 184 °C; to `O=C(O)CCC1CCCC2CCC(=O)NC12` (centres undefined), 95 to 97 °C; to `O=C(O)C(CCCc1cccc2ccccc12)c1ccccc1` (centres undefined), 99 to 100 °C.
The compound `Cc1cccc([N+](=O)[O-])c1-c1c(C)cccc1[N+](=O)[O-]` gave a melting point of 107 to 108 °C.
To `CC(C)(C)OC(=O)N1CC[C@H](Oc2ccc([N+](=O)[O-])cc2)C1` belongs 112 to 114 °C.
On to `O=C(O)CCc1cn(Cc2ccc(OCc3csc(-c4cccnc4)n3)cc2)cc1-c1ccccc1`, for which the melting point lay within 118 to 119 °C.
To `CCCc1cc(NC(=O)N2CCN(c3ccccc3OC)CC2)c(OC)nc1C` belongs 109 to 110 °C; to `O=C(Cn1ccnc1)c1nccs1`, 109 to 112 °C; to `CCSCCOC(=O)C1=C(C)NC(C)=C(C(=O)OCC=Cc2ccccc2)C1c1cccc([N+](=O)[O-])c1` (centres undefined), 142 to 144 °C.
